# Data published in patent publication US20050059626A1, “Methods of preventing and treating viral infections using immunomodulatory polynucleotide sequences” (priority 2000, published 2005).
# B1: murine IL-12: murine IL-12, 100 ng injected intraperitoneally as comparator in STC mice (protein, UniProt P43431 23-215; P43432 23-335, looked up)
# Interleukin-12 subunit alpha: RVIPVSGPARCLSQSRNLLKTTDDMVKTAREKLKHYSCTAEDIDHEDITRDQTSTLKTCLPLELHKNESCLATRETSSTTRGSCLPPQKTSLMMTLCLGSIYEDLKMYQTEFQAINAALQNHNHQQIILDKGMLVAIDELMQSLNHNGETLRQKPPVGEADPYRVKMKLCILLHAFSTRVVTINRVMGYLSSA
# Interleukin-12 subunit beta: MWELEKDVYVVEVDWTPDAPGETVNLTCDTPEEDDITWTSDQRHGVIGSGKTLTITVKEFLDAGQYTCHKGGETLSHSHLLLHKKENGIWSTEILKNFKNKTFLKCEAPNYSGRFTCSWLVQRNMDLKFNIKSSSSSPDSRAVTCGMASLSAEKVTLDQRDYEKYSVSCQEDVTCPTAEETLPIELALEARQQNKYENYSTSFFIRDIIKPDPPKNLQMKPLKNSQVEVSWEYPDSWSTPHSYFSLKFFVRIQRKKEKMKETEEGCNQKGAFLVEKTSTEVQCKGGNVCVQAQDRYYNSSCSKWACVPCRVRS
# Legend:
# [1] = system: HSV-1; assay: Viral titer from Vero cells pre-treated with oligonucleotide, HSV-1; format: cell-based, African Green monkey (Vero cells); settings: cells infected with HSV-1
# Procedure: (§1) Vero cells, a cell line derived from African Green monkey kidney, were pre-treated with varying concentrations of ISS or non-ISS oligonucleotides for varying times prior to the addition of HSV-1 or HSV-2. Oligonucleotides were used at 1 μg/ml or 10 μg/ml and the cells were incubated with the oligonucleotides for 30 seconds, 10 minutes or 24 hours. Viral titers were calculated as a percent of control titer generated by cells not treated with the oligonucleotides. The data are expressed as percent of control titer.
# [2] = system: HSV-2; assay: Viral titer from Vero cells pre-treated with oligonucleotide, HSV-2; format: cell-based, African Green monkey (Vero cells); settings: cells infected with HSV-2
# Procedure: as §1
# [3] = system: HSV-1; assay: Viral titer after pre-treating HSV-1 virus with oligonucleotide, Vero cells; format: cell-based, African Green monkey (Vero cells)
# Procedure: (§2) HSV-1 or HSV-2 virus was pre-treated with varying concentrations of ISS or non-ISS oligonucleotides for 10 minutes prior to adding the mixture to plated Vero cells. Oligonucleotides were used at 1 μg/ml or 10 μg/ml. Viral titers were calculated as a percent of control titer generated by cells not treated with the oligonucleotides. The data are expressed as percent of control titer.
# [4] = system: HSV-2; assay: Viral titer after pre-treating HSV-2 virus with oligonucleotide, Vero cells; format: cell-based, African Green monkey (Vero cells)
# Procedure: as §2
# [5] = system: HSV-2 strain MS; assay: Recurrent genital HSV-2 disease in guinea pigs; format: in vivo, Swiss Hartley guinea pigs; settings: 3 times/day for 7 days starting 6 hours post inoculation (21 treatments)
# [6] = system: HBV; assay: Chronic HBV model: serum HBV DNA and HBsAg in STC transgenic mice; format: in vivo, STC strain transgenic mice; settings: STC mice; ISS 100 μg SC; murine IL-12 100 ng IP days 12, 13, 14
# Procedure: ISS activity was tested in an animal model of chronic hepatitis. An ISS-containing phosphorothioate oligonucleotide (5′-[…]-3′) (SEQ ID NO:1), was delivered to STC strain transgenic mice, followed by measurement of HBV DNA and HBsAg production.
# STC line mice were developed at Stanford University by Patricia Marion. The majority of these mice secrete HBV of the Ayw genotype (Galibert et al. (1979) Nature 281:646) to titers of 10^6-8 viral genome equivalents per ml of serum. STC mice were derived from the FVB strain, and were constructed by microinjection of HBV genomic DNA.
# Approximately one month old mice were bled and tested for serum levels of HBsAg, which is predictive of viral DNA titer. A pool of 40 STC mice with approximately equal levels of HBsAg were selected and randomly assigned to four treatment groups of 10 animals each. The groups were treated as follows: • 1. 100 μg of ISS injected subcutaneously, once per week for 3 weeks (days 0, 7, 14) • 2. 100 μg of ISS injected subcutaneously, one injection at day 14 • 3. 100 ng of murine 1L-12 injected intraperitoneally on days 12, 13, and 14. • 4. PBS injected subcutaneously (days 0, 7, 14)
# Blood samples were taken at day 0, 7, 14, 15 (22 hr after last IL-12 injection), 18, 28 and 35. Serum prepared from the blood samples was tested for HBV DNA by quantitative PCR (testing performed under contract by Hepadnavirus Testing, Inc.), and HBsAg using a commercially available EIA kit for HBsAg from Abbott Laboratories. Animals were sacrificed at day 35 and livers were collected for histologic analysis.
# [7] = cells pre-treated 1 μg/ml, 30 sec
# [8] = cells pre-treated 1 μg/ml, 10 min
# [9] = cells pre-treated 1 μg/ml, 24 hr
# [10] = cells pre-treated 10 μg/ml, 30 sec
# [11] = cells pre-treated 10 μg/ml, 10 min
# [12] = cells pre-treated 10 μg/ml, 24 hr
# [13] = HSV-1 virus pre-treated 10 minutes with 1 μg/ml
# [14] = HSV-1 virus pre-treated 10 minutes with 10 μg/ml
# [15] = HSV-2 virus pre-treated 10 minutes with 1 μg/ml
# [16] = HSV-2 virus pre-treated 10 minutes with 10 μg/ml
Molecule,"Viral titer, percent of control titer [1, 7]","Viral titer, percent of control titer [1, 8]","Viral titer, percent of control titer [1, 9]","Viral titer, percent of control titer [1, 10]","Viral titer, percent of control titer [1, 11]","Viral titer, percent of control titer [1, 12]","Viral titer, percent of control titer [2, 7]","Viral titer, percent of control titer [2, 8]","Viral titer, percent of control titer [2, 9]","Viral titer, percent of control titer [2, 10]","Viral titer, percent of control titer [2, 11]","Viral titer, percent of control titer [2, 12]","Viral titer, percent of control titer [3, 13]","Viral titer, percent of control titer [3, 14]","Viral titer, percent of control titer [4, 15]","Viral titer, percent of control titer [4, 16]",Cumulative recurrent mean lesion days [5],Effect on serum HBV DNA viral titer [6]
"5′-TGACTGTGAAGGTTAGAGATGA-3′ (chemistry not given here) [SEQ ID NO: 9, reference compound]",100% of control titer,99% of control titer,101% of control titer,96% of control titer,100% of control titer,97% of control titer,98% of control titer,96% of control titer,103% of control titer,103% of control titer,97% of control titer,99% of control titer,102% of control titer,103% of control titer,98% of control titer,106% of control titer,,
"5′-TCGTCGAACGTTCGTTAACGTTCG-3′ (listed as DNA, chemistry not given here) [SEQ ID NO: 11, ISS oligonucleotide]",129% of control titer,95% of control titer,87% of control titer,122% of control titer,96% of control titer,78% of control titer,119% of control titer,,,136% of control titer,,,100% of control titer,100% of control titer,101% of control titer,97% of control titer,,
"Nc1nc2c(ncn2COCCO)c(=O)[nH]1 [Acyclovir, reference compound]",,,,,,,,,,,,,,,,,significant reduction in cumulative recurrent mean lesion days,
"5′-TGACTGTGAACCTTAGAGATGA-3′ (chemistry not given here) [SEQ ID NO: 12, non-ISS control oligonucleotide, reference compound]",132% of control titer,98% of control titer,97% of control titer,141% of control titer,100% of control titer,94% of control titer,111% of control titer,,,129% of control titer,100% of control titer,98% of control titer,98% of control titer,101% of control titer,100% of control titer,97% of control titer,,
B1,,,,,,,,,,,,,,,,,,effective in reducing viral titer
